Results as given in patent publication US20220031667A1, “THIAZOLIDINEDIONE ANALOGS FOR THE TREATMENT OF NAFLD AND METABOLIC DISEASES” (Cirius Therapeutics, Inc., priority 2019, published 2022).
“Also recorded” adds a separate entry of the source.

Experiments:
[1] = system: cell functions and key regulatory proteins; assay: impact of MSDC-0602K vs overnutrition on cell functions and key regulatory proteins (Table 1)
[2] = system: diet-induced obese WT (fl/fl) and LS-MPC2−/− mice; assay: single dose in diet-induced obese (60% HF diet) WT and LS-MPC2−/− mice: GTT, plasma insulin, plasma ALT, liver qPCR; format: in vivo; conditions: for glucose tolerance (GTT): vs vehicle
Protocol: 8 week old WT and LS-MPC2−/− mice were fed a diet of 60% fat (Research Diets D12492) for 20 weeks to induce obesity and insulin resistance. Intraperitoneal glucose tolerance tests (GTT) were performed after a 4 h fast by injection of 1 g/kg D-glucose in saline i.p. to assess glucose tolerance. 3 days after the initial GTT, mice were randomized to receive a single gavage of either vehicle (1% CMC, 0.01% Tween-80) or 30 mg/kg MSDC-0602K. Plasma insulin was measured by Singulex assay and plasma ALT levels were measured by commercially-available kits (Teco Diagnostics). qPCR was performed by isolation of total RNA with RNA-Bee and reverse transcription with a high-capacity cDNA synthesis kit (Invitrogen). qPCR was performed on an Applied Biosystems real-time thermocycler.

[3] = system: mice on high fat, high cholesterol, high sugar diet; assay: preclinical NASH model: diet enriched in trans fat, cholesterol and fructose for 19 weeks; format: in vivo
Protocol: Mice were fed a diet enriched in trans fat, cholesterol and fructose for 19 weeks to induce hepatic damage, which was assessed by histological changes in the NAS and fibrosis, measured by trichrome staining for collagen. MSDC-0602K (30 mg/kg) was given at either four weeks into the treatment or 16 weeks into the treatment as compared to the vehicle treated mice who were also on the modified diet. The results of mice who were kept on the normal diet are included for comparison. […] The signals for activation of the stellate cells and fibrosis are attenuated by treatment of the mice or isolated hepatocytes with MSDC-0602K.

[4] = preclinical toxicology, six- and twelve-month animal studies; format: in vivo
[5] = system: stellate cells in 3-dimensional bioprinted human liver organoids; assay: 3-dimensional bioprinted human liver organoids in medium with high sugars and fatty acid, collagen staining; format: cell-based; conditions: added to the tissue medium with high concentrations of sugars and fatty acid
[6] = system: subjects with biopsy proven NASH with fibrosis and no cirrhosis; assay: EMMINENCE Phase 2b clinical trial, interim analysis at six months; format: in vivo, humans; conditions: for peripheral edema present at 6 months: placebo 12.50%; for percentage of patients with high baseline ALT who returned to normal range: placebo 15%; for percentage of patients with high baseline AST who returned to normal range: placebo 20%
Text: Detailed Description: This is a randomized, double-blinded study of three doses of MSDC-0602K or placebo given orally once daily to subjects with biopsy proven NASH with fibrosis and no cirrhosis. Visits to the clinic will be at baseline, 1, 2, 3, 6, 9, and 12 months, with one 2-week follow-up visit. Safety will be assessed by monitoring of vital signs, 12 lead electrocardiogram (ECG), physical examinations, safety labs, and adverse events (AEs).
An interim analysis of the EMMINENCE Phase 2b trial was conducted in the first 328 subjects who reached their six-month follow-up visit. […] In the two highest dose groups, at least 50% of patients with elevated baseline Alanine transaminase (ALT) or Aspartate Aminotransferase (AST) improved into the normal range at six months, as shown in Table 3.
The subjects included in this interim analysis had significant liver disease, as established by liver biopsy, with an average NAS at baseline of 5.3. […] Overall, baseline characteristics were well-balanced across treatment groups.

[7] = molecular target: T1, MPC (mitochondrial pyruvate carrier) (Homo sapiens, UniProt O95563+Q9Y5U8); assay: relative binding affinities with the MPC; conditions: FIG. 16 as printed (legend: FIG. 8); relative to rosiglitazone and pioglitazone
T1 sequence (Q9Y5U8 1-109): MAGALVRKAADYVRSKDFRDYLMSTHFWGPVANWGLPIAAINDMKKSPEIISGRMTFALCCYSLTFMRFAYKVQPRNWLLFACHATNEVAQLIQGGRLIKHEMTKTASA
T1 sequence (O95563 1-127): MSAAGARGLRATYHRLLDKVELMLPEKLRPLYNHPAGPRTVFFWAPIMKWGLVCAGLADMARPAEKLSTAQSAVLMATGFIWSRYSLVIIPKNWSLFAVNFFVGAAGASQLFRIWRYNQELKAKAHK

[8] = system: WT mice on HTF-C diet (mouse model of NASH); assay: NASH (HTF-C) diet plasma RNA experiments: serum miRNA sequencing; format: in vivo; conditions: HTF-C diet 4 or 16 weeks, then HTF-C diet containing 331 ppm
Protocol: To begin evaluating the exosome cargo of MSDC-0602K-treated mice, WT mice were fed with either a low fat (LF) control diet (Research Diets D09100304) or high trans-fat, fructose, cholesterol (HTF-C) diet composed of 40% trans-fat, 20% fructose, 2% cholesterol (Research Diets D09100301).
Total RNA was isolated from 400 μL of serum and small RNA sequencing was performed by adapter ligation, cDNA synthesis and size selection of 145-160 base pairs. Sequencing was then performed on an Illumina HiSeq3000.

[9] = clinical pharmacokinetics (Phase 1 cross-over trials, Phase 2a trial); conditions: human, in vivo; humans, oral
[10] = system: healthy volunteers; assay: three Phase 1 clinical trials in 126 healthy volunteers, safety; format: in vivo, humans; conditions: Phase 1, healthy volunteers
[11] = molecular target: T2, PPARγ (Homo sapiens, UniProt P37231); assay: relative binding affinities with PPARγ; conditions: FIG. 15 as printed (legend: FIG. 7)
T2 sequence (P37231 1-505): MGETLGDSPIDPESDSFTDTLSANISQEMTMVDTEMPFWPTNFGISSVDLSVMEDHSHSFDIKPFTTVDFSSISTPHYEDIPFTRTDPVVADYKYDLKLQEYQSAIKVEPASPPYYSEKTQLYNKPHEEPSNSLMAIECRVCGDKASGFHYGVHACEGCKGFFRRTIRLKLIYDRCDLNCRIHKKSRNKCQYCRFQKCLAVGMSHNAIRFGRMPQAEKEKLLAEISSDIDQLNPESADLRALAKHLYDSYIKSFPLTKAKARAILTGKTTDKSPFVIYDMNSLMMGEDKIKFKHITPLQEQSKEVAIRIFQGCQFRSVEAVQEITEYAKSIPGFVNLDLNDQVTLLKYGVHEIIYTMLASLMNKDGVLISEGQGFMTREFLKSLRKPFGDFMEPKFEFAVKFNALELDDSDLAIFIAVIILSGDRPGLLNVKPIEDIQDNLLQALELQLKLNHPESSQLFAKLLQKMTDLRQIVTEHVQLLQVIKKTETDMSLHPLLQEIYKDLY

[12] = exposure and bioavailability of MSDC-0602, its metabolite and the potassium salt; format: in vivo; conditions: parent plus metabolite exposure

COc1cccc(C(=O)COc2ccc(CC3SC(=O)NC3=O)cc2)c1 (centres unmarked) [MSDC-0602K]
Fatty acid oxidation (burning fat) [1]: Increased | HIF1α (transcription factor responding to oxygen) [1]: Decreased | Inflammation (ballooning due to injury) [1]: Decreased | Insulin sensitivity (cellular response to insulin) [1]: Increased | PPARγ, PPARα (transcription factors regulating fat metabolism and inflammation) [1]: Increased | SREBP (transcription factor regulating fat synthesis) [1]: Decreased | de novo lipid synthesis (making new fat) [1]: Decreased | mTORC1 (important nutrient sensor) [1]: Decreased | glucose tolerance (GTT) ([2]; obese WT mice, GTT 20 h after a single gavage of 30 mg/kg, 30 mg/kg): improves glucose tolerance | signals for activation of the stellate cells and fibrosis ([3]; 30 mg/kg from week 4 or week 16 of a 19 week diet, mice or isolated hepatocytes): attenuated | safety findings in toxicological profile ([4]; doses up to seven-fold the currently used clinical dose equivalents): free acid, have been characterized and no significant safety findings | safety and tolerability ([4]; six- and twelve-month preclinical animal studies): 0602K, MSDC-0602K was found to be safe and well-tolerated. | nutrient-induced stellate cell activation and fibrosis (staining for collagen) [5]: both prevented and reversed the effects of the nutrients | peripheral edema present at 6 months ([6]; 62.5 mg (n = 81), baseline 13.60%): 7.80% | percentage of patients with high baseline ALT who returned to normal range ([6]; 62.5 mg, six months): 29% | percentage of patients with high baseline AST who returned to normal range ([6]; 62.5 mg, six months): 36% | peripheral edema present at 6 months ([6]; 125 mg (n = 84), baseline 13.10%): 13.50% | placebo-corrected reduction in ALT at six months ([6]; 125 mg once daily, p<0.001): 14.3 U/L | placebo-corrected reduction in AST at six months ([6]; 125 mg once daily, p=0.012): 7.9 U/L | percentage of patients with high baseline ALT who returned to normal range ([6]; 125 mg, six months): 60% | percentage of patients with high baseline AST who returned to normal range ([6]; 125 mg, six months): 50% | peripheral edema present at 6 months ([6]; 250 mg (n = 85), baseline 9.40%): 11.10% | placebo-corrected reduction in AST at six months ([6]; 250 mg once daily, not significant): 4.0 U/L | placebo-corrected reduction in ALT at six months ([6]; 250 mg once daily, p=0.004): 10.6 U/L | percentage of patients with high baseline ALT who returned to normal range ([6]; 250 mg, six months): 56% | percentage of patients with high baseline AST who returned to normal range ([6]; 250 mg, six months): 52% | HbA1c ([6]; Type II diabetes subjects, all doses): statistically significant improvement | HOMA-IR and HbA1c ([6]; all MSDC-0602K dose cohorts, six months): Statistically significant reductions | fasting glucose, HbA1c, insulin levels, and HOMA-IR ([6]; all subjects, six months, 125 mg and 250 mg doses): statistically significant improvements | Adiponectin ([6]; all treatment cohorts, dose dependent): increased significantly | liver enzymes, including ALT and AST, at six months compared to baseline ([6]; first 328 subjects): statistically significant reductions | lipids ([6]; overall): neutral effect | treatment emergent serious adverse events ([6]; reported in fourteen subjects, blinded across cohorts): none of which were determined by the investigator to be drug-related | additional biomarkers of fibrosis such as hematocrit ([6]; six months): trends for improvement | bilirubin, alkaline phosphatase, and gamma GT liver enzymes ([6]; six months): Improvements | patients with elevated baseline ALT or AST improved into the normal range at six months ([6]; two highest dose groups (125 mg, 250 mg)): at least 50% | C-Reactive Protein levels ([6]; two lowest doses): decrease

COc1cccc(C(=O)COc2ccc(CC3SC(=O)NC3=O)cc2)c1 (centres unmarked) [MSDC-0602]
binding to the MPC [7]: maintain, and in some cases improve, binding to the MPC | plasma ALT and liver injury gene expression in LS-MPC2−/− mice ([2]; LS-MPC2−/− mice, acute treatment): refractory to the beneficial effects | plasma ALT concentrations ([2]; WT mice, single dose (FIG. 3A)): decreased plasma ALT concentrations | gene expression for hepatic stellate cell activation and fibrotic scar formation ([2]; WT mice, single dose (FIG. 3B)): decreased gene expression | plasma insulin values ([2]; both WT and LS-MPC2−/− mice, single dose 30 mg/kg): decreased | glucose tolerance (GTT) ([2]; obese LS-MPC2−/− mice, GTT 20 h after a single dose of 30 mg/kg): no improvement in glucose tolerance | glucose tolerance (GTT) ([2]; obese WT mice, GTT 20 h after a single gavage of 30 mg/kg): improved glucose tolerance | serum miRNAs altered by HTF-C diet [8]: largely corrected | protection against the high fat, high cholesterol, high sugar diet representative of NASH disease ([3]; multiple animal models of NASH): has been shown to protect | half-life [9]: 11 to 17 h | most commonly reported adverse events [10]: commonly reported adverse events with MSDC-0602 were headache,; also recorded: emesis, diarrhea and abdominal bloating | deaths, serious adverse events, severe adverse events or discontinuations due to adverse events ([10]; MSDC-0602 or MSDC-0602K): No deaths | safety laboratory tests, vital signs, physical examination findings or electrocardiogram abnormalities considered clinically significant ([10]; MSDC-0602 or MSDC-0602K): events were reported. Overall, it was determined that there were no

COc1cccc(C(O)COc2ccc(CC3SC(=O)NC3=O)cc2)c1 (centres unmarked) [primary metabolite of MSDC-0602]
reduction in binding affinity for PPARγ compared to pioglitazone [11]: more than fifty-fold reduction | binding to the MPC [7]: maintain, and in some cases improve, binding to the MPC | share of the combined exposure [12]: more than 90%
